Experimental data reported in patent publication US12286439B2, “Inhibitors of ERK nuclear translocation” (Yeda Research and Development Co. Ltd., priority 2018, dated 2025).
“Also recorded” adds a separate entry of the source.

Columns and labels:
[1] = test system: Panc-1, AsPC-1, CFPAC-1, MIA PaCa-2, Capan-1, Capan-2 and BxPC-3 pancreatic cancer cells; assay: Viability assay (methylene blue), pancreatic cancer cell lines; format: cell-based
Procedure: FIGS. 6A and 6B present data showing that Compound Z56 prevents proliferation of pancreatic cancer cells. […] Panc-1, AsPC-1, CFPAC-1, Mia PaCa-2, Capan-1, Capan-2 (Ras-transformed) and BxPC-3 (Ras-wild type) pancreatic cancer cells were treated with either EPE peptide (10 μM; middle bars) or Z56 (3 μM; right bars) or DMSO control (0.1%; left bars) in 1% FCS for 72 hours. […] Panc-1, AsPC-1, BxPC-3 and Mia PaCa-2 cells grown in 1% FCS medium containing either EPE peptide (10 μM), 56 (3 μM), PLX4032 (1 μM), PD184352 (5 μM) or DMSO control (0.1%). The graphs present the kinetics of cell proliferation at the indicated times after the treatment started. Quantification of all viable cells was done by methylene blue and repeated 3 times in triplicates. All results presented as a fold change of the initial cell number and represent averages ±SE.
(§1) Cells were seeded at low confluence into 24, 48 or 96-well plates in complete medium. After 24 hours, medium was replaced by 1% FCS (fetal calf serum) containing appropriate treatments. Fresh medium containing the same agents was replaced every day. After 72 or 96 hours of treatment, cells were fixed with 4% formaldehyde overnight at 23° C., washed once with 0.1 M borate buffer (pH 8.5) for 10 minutes, and stained with of 1% methylene blue in 0.1 M borate buffer (pH 8.5) for 30 minutes. Excess stain was washed out with distilled water. Color was extracted by adding 0.1 M HCl (3 hours, 23° C.), and absorbance measured at 595 nm in an ELISA reader. For time course experiments, attached cells were fixed and measured at 0, 24, 48, 72 and 96 hours. For dose-response experiments, cells were treated with indicated concentrations of reagent, fixed and stained after 72 hours as above.
Activating mutations in Ras are found in more than 95% of pancreatic cancers where signaling through both Raf and Akt pathway drives cancer progression [Campbell et al., Cancer Res 2007, 67:2098-2106]. However, no effective treatments that target this mutant protein have reached the clinic to date, and pancreatic ductal adenocarcinoma remains an almost universally fatal disease [Bryant et al., Trends Biochem Sci 2014, 39:91-100]. Therefore, treating these pancreatic cancer cells downstream of Ras, without overactivating the Akt pathway, should be at least partially beneficial. The effect of Compound Z56 (and EPE peptide) on cell viability of Ras-transformed (and Ras-wild type) pancreatic cancer cells was determined, using a variety of cell lines.
The effects of Compound Z56 on the viability of pancreatic cancer cell lines at various times after treatment was compared with those of PLX4032 (a B-Raf inhibitor) and PD184352 (a MEK1/2 inhibitor).

PC3 cells = assay: Dose-response analysis, PC3 cells; format: cell-based; conditions: dose response, 72 hours
Procedure: (§2) FIG. 15A presents dose response curves of compounds C17, D3, D11 and D14 on 8 cancer cells. Five melanoma cell lines (A2185, A2352, A2024, A2058 and LOX-IMVI), HeLa, HCT-116 and PC3 cells were grown in 1% FCS media containing either DMSO (0.1%), EPE peptide (10 μM), or Compounds C17, D3, D11, D14 at the indicated concentrations, for 72 hours. Viable cells were quantified by staining with methylene blue. Data presented as percentage of DMSO control ±SE of triplicates. […] IC50 values were calculated by interpolation in the curves in FIG. 15A. […] Bar graphs represent average viability respect to DMSO control ±SE of triplicates.
(§3) Cell Viability (IC50) Assay:
(§4) Cells were seeded at a density of 4000 cells per well into 96-well plates in complete medium. After 24 hours, medium was replaced by 1% FCS (fetal calf serum) containing appropriate treatments. Fresh medium containing the same agents was replaced every day. After 96 hours, cell viability was assessed using the CellTiter-Glo reagent (Promega; Madison, WI). IC50 values were determined using GraphPad Prism.

A2185 and A2352 cells = assay: Viability assay (methylene blue), two BRAF melanoma cells; format: cell-based
Procedure: FIGS. 10A, 10B and 10C present data from screening the 20 analogs of Compound Z2 (“C-compounds”) showing three particularly active anti-proliferative compounds. […] A2185 and A2352 cells were grown in 1% FCS containing DMSO (0.1%), EPE peptide, Compound Z56, Compound Z2 or C-compounds (10 μM), for 72 hours. Compounds were categorized according to activity: (1) active, below 40%; (2) moderate activity, below 80%; (3) not active, above 80%. […] A2185 and A2352 cells were grown in 1% FCS containing DMSO (0.1%), EPE peptide (10 μM), compounds Z56, Z2 or selected C-compounds (3 μM), for 72 hours. Empty squares/circles represent individual data points of proliferation. Full squares/circles indicate average proliferation of 2 independent experiments in triplicate±SE. Bold horizontal line defines arbitrary activity threshold of activity below 40%. FIG. 10C presents dose response curves of active C-compounds compounds. A2185 and A2352 were grown in 1% FCS media containing DMSO (0.1%), EPE peptide, Z56, Z2 (10 μM) or compounds C17, C22 and C23 (0.1-10 μM), for 72 hours. […] Cell viability was measured by staining with methylene blue. Data presented as percentage of DMSO control. Bar graphs represent average of 2 independent experiments done in triplicates ±SE.
FIG. 13 presents a graph showing the effect of analogs of Compound C17 (“D-compounds”) on cell viability at a concentration of 10 μM. A2185 and A2352 cells were grown in 1% FCS media containing DMSO (0.1%) EPE peptide (10 μM), Compounds Z56, Z2, C17 (10 μM) as controls, and D-Compounds (10 μM), for 72 hours. Viable cells were measured by staining with methylene blue. Bar graphs represent average of 2 independent experiments done in triplicates. Data presented as percentage of DMSO proliferation ±standard error.
FIG. 14 presents a graph showing the effect of analogs of Compound C17 (“D-compounds”) on cell viability at a concentration of 1 μM. A2185 and A2352 cells were grown in 1% FCS media containing DMSO (0.1%), EPE peptide (10 μM), Compounds Z56, Z2 and C17 (1 and 10 μM) as controls, and D-compounds (1 μM), for 72 hours. Viable cells were measured by staining with methylene blue. Bar graphs represent average of 2 independent experiments done in triplicates. Data presented as percentage of DMSO proliferation ±standard error.
as §1
The ability of the selected compounds to reduce cell viability of two BRAF melanoma cells (A2185 and A2352) was evaluated. Initially, all compounds were assayed at a relatively high concentration of 10 μM.

[2] = test system: A2185, A2352, A2024, A2058, LOX-IMVI, HeLa, HCT-116 and PC3 cells; assay: Dose-response analysis (IC50 assay) in eight cancer cell lines; format: cell-based
Procedure: as §2
Cell Viability (IC50) Assay: […]

[3] = test system: ERK1/2 nuclear translocation; assay: Determination of ERK1/2 localization by fluorescence microscopy after TPA stimulation; format: cell-based
Procedure: Determination of Protein Localization by Fluorescence Microscopy:
Indicated cells were seeded on coverslips (coated with 0.001% w/v poly-L-lysine or not, depending on the cell line) at 50% confluency. After the indicated treatment, cells were fixed in 4% paraformaldehyde/PBS for 20 minutes on an ice surface, permeabilized with 0.1% Triton X-100/PBS for 5 minutes at 23° C., then blocked in 2% BSA/PBS for 30 minutes at 23° C. The fixed cells were sequentially incubated with appropriate antibodies (in 2% BSA/PBS, 1.5 hour), washed 3 times with PBS^−/−, and followed by incubation with either Cy-2-conjugated or rhodamine-conjugated secondary antibodies (1:200) and with DAPI ([…]; 1:100) in 2% BSA/PBS for 45 minutes. Slides were analyzed and photographed by a fluorescence microscope (Olympus BX51, ×40). Background correction, and contrast adjustment of raw data images were performed using Photoshop (Adobe, CA, USA).
The effect of Z56 was compared with that of the inhibitory effect of EPE peptide on nuclear translocation of ERK1/2.
The effects of the compounds on ERK1/2 nuclear translocation were evaluated in three cell lines (HeLa cells and two melanoma cell lines, A2185 and A2352), by treating the cells with each compound for two hours, and determining nuclear translocation using fluorescent anti-ERK antibodies, according to procedures described hereinabove.

[4] = test system: melanoma cells (A2185, A2352, A2024, A2058 and LOX-IMVI); assay: Dose-response analysis (IC50 assay), melanoma cells; format: cell-based; conditions: calculated by interpolation in the dose response curves
Procedure: as §2, §3, §4

[5] = test system: anti-tubercular activity (unknown mechanism); conditions: Ananthan et al., Tuberculosis (Edinb) 2009; cited from earlier work
mammalian cells = conditions: Ananthan et al., Tuberculosis (Edinb) 2009; cited from earlier work
LOX-IMVI melanoma cells = assay: Dose-response analysis (IC50), LOX-IMVI cells; format: cell-based; conditions: Homo sapiens
Procedure: as §2, §3, §4

O=C(NOCC1CC1)c1ccc(F)c(F)c1Nc1ccc(I)cc1Cl [PD184352]
viability, time course ([1]; 5 μM, all tested cell lines (Panc-1, AsPC-1, BxPC-3, Mia PaCa-2)): reduced the viability

O=S1(=O)C=CC2ON=C(c3c[nH]c4ccccc34)C21 (stereo not shown) [Compound D14]
viability of PC3 cells (PC3 cells): significantly decreased | cytotoxicity at 1 µM (A2185 and A2352 cells; 1 μM, 72 hours, 1% FCS, both melanoma cell lines, read-out: reduction of viability): ≤ 90% | potency in reducing cell viability relative to Compound C17 ([2]; 72 hours, in six of the eight tested cell lines): significantly more potency than Compound C17 | IC50 values compared to Compound C17 ([2]; eight cancer cell lines): significantly lower IC50 values compared to Compound C17 | selectivity (pattern of effect across cell types compared with EPE peptide) ([2]; eight cancer cell lines): less selective | inhibition of stimulated ERK1/2 nuclear translocation ([3]; 1 μM, 2 h, TPA 100 nM, 15 minutes, A2185 cells): convincing activity

CCCS(=O)(=O)Nc1ccc(F)c(C(=O)c2c[nH]c3ncc(-c4ccc(Cl)cc4)cc23)c1F [PLX4032]
proliferation, time course ([1]; 1 μM, Ras-mutated AsPC-1 cells): to some extent | viability, time course ([1]; 1 μM, other Ras-transformed pancreatic cancer cells (Panc-1, Mia PaCa-2)): not affecting the viability

O=S1(=O)C=CC2ON=C(c3ccc(C(F)(F)F)cc3)C21 (stereo not shown) [Compound C17]
IC50 [4]: 400 to 1300 nM | viability of PC3 cells (PC3 cells): significantly decreased | anti-tubercular activity in high-throughput screening [5]: hit | cytotoxic activity in mammalian cells (mammalian cells): without presenting cytotoxic activity | cell viability at lower concentration (A2185 and A2352 cells; 3 μM, 72 hours, 1% FCS): consistently strong anti-viability effect | viability at 10 µM (A2185 and A2352 cells; 10 μM, 72 hours, 1% FCS, active below 40%, moderate below 80%, not active above 80%, read-out: cell viability (percentage of DMSO control)): < 40% | cell viability, dose response (A2185 and A2352 cells; 0.1-10 μM, 72 hours, 1% FCS): dose dependent manner; also recorded: as potent in reducing the viability of A2352 cells | activity in SAR summary of FIGS. 10A-10C (cell viability) (A2185 and A2352 cells; comparison with Compound Z2 or named analog): surprisingly superior to the ester group of Compound Z2 | concentration at which activity is already exhibited (A2185 and A2352 cells; dose response 0.1-10 μM, 72 hours): 0.3 µM | IC50 (A2185 and A2352 cells; potency summarised from viability results of Example 6): ~1000 nM | IC50 (LOX-IMVI melanoma cells): ~20 nM | relative potency in blocking nuclear accumulation of ERK1/2 ([3]; 10 μM, 2 hours, A2185 cells): more potent than Compounds C22 and C23 | nuclear accumulation of ERK1/2 upon TPA stimulation ([3]; 10 μM, 2 hours, TPA 100 nM, 15 minutes, A2185 and A2352 cells): inhibited
